The target in one assay is T1, human eIF4E protein (Homo sapiens, UniProt P06730).
T1 construct: purchased Novus NBP-45314
The experiment in a line: Biochemical competitive binding assay (TR-FRET competition, EDA-m7GDP-ATTO-647N probe). To be noted: read-out: hEIF4E TR-FRET IC50. The method in brief:
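His-tagged human eIF4E (4 nM) was preincubated with Eu-anti-His antibody (2.5 nM) and added to compound (11-point, 4-fold dilutions) for 15 min. Then 5 nM EDA-m7GDP-ATTO-647N was added for 15 min, in HEPES pH 7.5, 100 mM KCl. The 665/620 TR-FRET ratio was normalized to controls, and IC50 was taken from 4-parameter fits.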
A general note: In TR-FRET formats the signal depends on donor and acceptor labels being close together.

Assay [1] has as its system cap-dependent translation in Flp-In-293 reporter cells. The experiment in a line: Cellular cap-dependent translation inhibition assay (dual luciferase assay, DLA; Fluc/Rluc ratio, 24 hours). The assay is classed as cell-based. To be noted: dual luciferase assay, Flp-In-293 reporter cells, 24 hours, Fluc/Rluc ratio, read-out: DLA 205 IC50.
In assay [2] the test system is COLO 205 colorectal tumor cells. As to the kind of experiment: Tumor cell viability inhibition assay (CellTiter-Glo 2.0, 72 hours). The assay is classed as cell-based. To be noted: COLO 205 cell viability. The procedure, abridged:
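COLO 205 cells (1500/well, RPMI-1640 + 10% FBS) exposed for 72 h to an 11-point, 4-fold dilution series; cellular ATP read by CellTiter-Glo 2.0 luminescence. Data normalized to DMSO and maximum-inhibition controls; IC50 from 4-parameter curve fit.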
For orientation: ATP-based viability assays read luminescence as a measure of living cells.

Assay [3] concerns cyclin D1 protein levels in COLO 205 cells. As to the kind of experiment: Cyclin D1 cellular inhibition assay (HTRF, 6 hours). The assay is classed as cell-based. To be noted: 6 hours of compound treatment, Cyclin D1 protein levels by HTRF, read-out: COLO 205 6 h Cyclin D1 TR-FRET IC50. The method in brief: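 COLO 205 cells in RPMI-1640 with 10% FBS treated 6 h with 11-point compound dilutions at 1% DMSO final. Lysates assayed for cyclin D1 by HTRF. Signal normalized to DMSO and maximum-inhibition controls, with IC50 from 4-parameter fit.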

Where two headings read alike, the source gives them in different places.

T1 sequence (P06730 whole entry): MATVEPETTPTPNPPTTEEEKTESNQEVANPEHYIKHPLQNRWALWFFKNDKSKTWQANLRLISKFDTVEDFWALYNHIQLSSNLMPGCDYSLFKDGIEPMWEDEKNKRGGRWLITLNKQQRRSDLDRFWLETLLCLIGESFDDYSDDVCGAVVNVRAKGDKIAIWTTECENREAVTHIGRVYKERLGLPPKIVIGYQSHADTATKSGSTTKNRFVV

As a reminder, the IC50 is the concentration at which inhibition is half-maximal. For the compound `Cc1sc2c(-c3cc(Cl)ccc3OCCn3c(C)nc4c(c3=O)CC(N(C)C3CC3)CC4)cn(C)c(=O)c2c1C(=O)O` (single isomer, unassigned) [Compound 244], the IC50 on human eIF4E protein was 0.1 to 0.5 µM; in assay [1] (Homo sapiens, Flp-In-293, 24 h), > 5 µM; in assay [2] (Homo sapiens, COLO 205, 72 h), > 20 µM; in assay [3] (Homo sapiens, COLO 205, 6 h), > 20 µM.

`Cc1cc(-c2cc(Cl)ccc2OCCn2c(C)nc3c(c2=O)C[C@H](N2CC[C@@H](F)C2)CC3)c2scc(C(=O)O)c2n1` (single isomer, unassigned) [Compound 328]: the IC50 is < 0.1 µM at human eIF4E protein; < 1 µM in assay [1] (Homo sapiens, Flp-In-293, 24 h); < 5 µM in assay [2] (Homo sapiens, COLO 205, 72 h); < 5 µM in assay [3] (Homo sapiens, COLO 205, 6 h).

As for `Cc1cc(-c2cc(Cl)ccc2OCCn2c(C)nc3c(c2=O)CC(N(C)C)CC3)c2scc(C(=O)O)c2n1` (stereo not drawn) [Compound 3, 7-[5-chloranyl-2-[2-[6-[di(methyl)amino]-2-methyl-4-oxidanylidene-5,6,7,8-tetrahydroquinazolin-3-yl]ethoxy]phenyl]-5-methyl-thieno[3,2-b]pyridine-3-carboxylic acid; 2,2,2-tris(fluorenyl)acetic acid], the IC50 is < 0.1 µM on human eIF4E protein; < 1 µM in assay [1] (Homo sapiens, Flp-In-293, 24 h); < 5 µM in assay [2] (Homo sapiens, COLO 205, 72 h); < 5 µM in assay [3] (Homo sapiens, COLO 205, 6 h).

For `CO[C@@H]1CCN([C@@H]2CCc3nc(C)n(CCOc4ccc(Cl)cc4-c4cc(C)nc5c(C(=O)O)csc45)c(=O)c3C2)C1` (single isomer, unassigned) [Compound 42], the IC50 at human eIF4E protein is < 0.1 µM; in assay [1] (Homo sapiens, Flp-In-293, 24 h), < 1 µM; in assay [2] (Homo sapiens, COLO 205, 72 h), < 5 µM; in assay [3] (Homo sapiens, COLO 205, 6 h), < 5 µM.

Turning to `Cc1cc(-c2cc(Cl)ccc2OCCn2c(C)nc3c(c2=O)CC(N(C)C2(C4CCC4)CC2)CC3)c2scc(C(=O)O)c2n1` (single isomer, unassigned) [Compound 243], the IC50 is < 0.1 µM at human eIF4E protein, 1 to 5 µM in assay [1], 5 to 20 µM in assay [2] and 5 to 20 µM in assay [3].

Regarding `Cc1cc(-c2cc(Cl)ccc2OCCn2c(C)nc3c(c2=O)CC(N2CCCCC2)CC3)c2scc(C(=O)NS(C)(=O)=O)c2n1` (single isomer, unassigned) [Compound 241], the IC50 was < 0.1 µM at human eIF4E protein; < 1 µM in assay [1] (Homo sapiens, Flp-In-293, 24 h); < 5 µM in assay [2] (Homo sapiens, COLO 205, 72 h); < 5 µM in assay [3] (Homo sapiens, COLO 205, 6 h).

As for `Cc1cc(-c2cc(Cl)ccc2OCCn2c(C)nc3c(c2=O)CC(N(C)C)CC3)c2scc(C(=O)O)c2n1` (single isomer, unassigned) [Compound 14], the IC50 is < 0.1 µM at human eIF4E protein, 1 to 5 µM in assay [1], 5 to 20 µM in assay [2] and > 20 µM in assay [3].

Take `Cc1cc(-c2cc(Cl)ccc2OCCn2c(C)nc3c(c2=O)CC(N2CCCCC2)CC3)c2scc(C(=O)NS(C)(=O)=O)c2n1` (single isomer, unassigned) [Compound 245]: the IC50 is < 0.1 µM on human eIF4E protein, < 1 µM in assay [1], 5 to 20 µM in assay [2] and 5 to 20 µM in assay [3].

Regarding `Cc1cc(-c2cc(Cl)ccc2OCCn2c(C)nc3c(c2=O)CC(N(C)CC2(C)COC2)CC3)c2scc(C(=O)O)c2n1` (stereo not drawn) [Compound 18], the IC50 at human eIF4E protein is < 0.1 µM; in assay [1] (Homo sapiens, Flp-In-293, 24 h), < 1 µM; in assay [2] (Homo sapiens, COLO 205, 72 h), < 5 µM; in assay [3] (Homo sapiens, COLO 205, 6 h), < 5 µM.

In the case of `Cc1cc(-c2cc(Cl)ccc2OCCn2c(C)nc3c(c2=O)CC(N(C)C2(C4CCC4)CC2)CC3)c2scc(C(=O)O)c2n1` (single isomer, unassigned) [Compound 242], the IC50 at human eIF4E protein is < 0.1 µM; in assay [1] (Homo sapiens, Flp-In-293, 24 h) it was < 1 µM; in assay [2] (Homo sapiens, COLO 205, 72 h), < 5 µM; in assay [3] (Homo sapiens, COLO 205, 6 h), < 5 µM.

For `Cc1cc(-c2cc(Cl)ccc2OCCn2c(C)nc3c(c2=O)CC(N(CC2CC(F)(F)C2)C2CC2)CC3)c2scc(C(=O)NS(C)(=O)=O)c2n1` (single isomer, unassigned) [Compound 261], the IC50 is < 0.1 µM on human eIF4E protein, < 1 µM in assay [1], < 5 µM in assay [2] and 5 to 20 µM in assay [3].

As to `Cc1cc(-c2cc(Cl)ccc2OCCn2c(C)nc3c(c2=O)CC(N(CC2CC(F)(F)C2)C2CC2)CC3)c2scc(C(=O)O)c2n1` (single isomer, unassigned) [Compound 263], the IC50 was < 0.1 µM at human eIF4E protein, < 1 µM in assay [1], < 5 µM in assay [2] and < 5 µM in assay [3].

In the case of `Cc1cc(-c2cc(Cl)ccc2OCCn2c(C)nc3c(c2=O)CC(N(C)C2CC2)CC3)c2scc(C(=O)NS(C)(=O)=O)c2n1` (stereo not drawn) [Compound 51], the IC50 on human eIF4E protein is < 0.1 µM; in assay [1] (Homo sapiens, Flp-In-293, 24 h), < 1 µM; in assay [2] (Homo sapiens, COLO 205, 72 h), < 5 µM; in assay [3] (Homo sapiens, COLO 205, 6 h), < 5 µM.

Consider `Cc1nc2c(c(=O)n1CC#Cc1ccc(Cl)cc1-c1ccnc3c(C(=O)O)csc13)C[C@H](N1CC[C@@H](F)C1)CC2` (single isomer, unassigned) [Compound 326], for which the IC50 is < 0.1 µM on human eIF4E protein; < 1 µM in assay [1] (Homo sapiens, Flp-In-293, 24 h); < 5 µM in assay [2] (Homo sapiens, COLO 205, 72 h); < 5 µM in assay [3] (Homo sapiens, COLO 205, 6 h).

Take `Cc1cc(-c2cc(Cl)ccc2OCCn2c(C)nc3c(c2=O)CC(N(C)C2CC2)CC3)c2scc(C(=O)O)c2n1` (stereo not drawn) [Compound 46]: the IC50 on human eIF4E protein is < 0.1 µM; in assay [1] (Homo sapiens, Flp-In-293, 24 h), < 1 µM; in assay [2] (Homo sapiens, COLO 205, 72 h), < 5 µM; in assay [3] (Homo sapiens, COLO 205, 6 h) it was < 5 µM.

(Values after US20240246918A1, “COMPOUNDS AND COMPOSITIONS AS EIF4E INHIBITORS AND THE USES THEREOF” (Ribometrix, Inc., priority 2022, published 2024).)
